SMILES strings stand for the structures. Calls of active or inactive are those of the source.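 The calls were made as follows: active = over 20% inhibition at the single screening dose, then confirmed by dose response with half-maximal potency of 40 µM or better; inactive = the rest.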

The IC50 is the point on the concentration scale where inhibition reaches its midpoint.

The first assay deals with mevalonate kinase (Streptococcus pneumoniae D39). As to the kind of experiment: mevalonate kinase inhibitor confirmation – biochemical, cuvette format, NADH absorbance 340 nm (AID 1000). The following applies: recombinant MK, PK/LDH coupled NADH absorbance 340 nm.
With `O=c1c2ccccc2nc2n1CCC2NC(c1ccccc1)c1ccccc1` (configuration not stated), the IC50 was 17300 nM.
`O=C(NC1CC1)c1ccc(-n2sc3ccccc3c2=O)cc1`: the IC50 was 171 nM.
Still for that read-out and setting: the value for `O=C(NCc1ccco1)c1ccccc1-n1sc2ccccc2c1=O` was 579 nM; that for `O=C(c1ccccc1-n1sc2ccccc2c1=O)N1CCCC1` was 514 nM; that for `O=C(c1cccc(-n2sc3ccccc3c2=O)c1)N1CCOCC1` was 432 nM.
Still for that read-out and setting: the value for `O=C(c1ccc(-n2sc3ccccc3c2=O)cc1)N1CCCC1` was 198 nM; that for `CN1CCN(C(=O)c2ccc(-n3sc4ccccc4c3=O)cc2)CC1` was 459 nM.
Same read-out and setting: to `O=C(NC1CC1)c1ccccc1-n1sc2ccccc2c1=O` belongs 958 nM; to `CCCNC(=O)c1ccc(-n2sc3ccccc3c2=O)cc1`, 134 nM.
Take `CCCN(CCC)C(=O)c1ccc(-n2sc3ccccc3c2=O)cc1`: the IC50 was 168 nM.
The same measure, in the same setting: the value for `CCN(CC)C(=O)c1ccccc1-n1sc2ccccc2c1=O` was 1010 nM; that for `CN(C)C(=O)c1cccc(-n2sc3ccccc3c2=O)c1` was 369 nM; that for `CCCNC(=O)c1cccc(-n2sc3ccccc3c2=O)c1` was 277 nM.
In the case of `CN(C)C(=O)c1ccccc1-n1sc2ccccc2c1=O`, the IC50 is 754 nM.
On the same count and under the same terms, the value for `CCN(CC)C(=O)c1cccc(-n2sc3ccccc3c2=O)c1` was 214 nM; that for `Cc1ccc(-n2sc3ccccc3c2=O)cc1S(=O)(=O)N1CCCC1` was 83 nM; that for `O=C(NCc1ccccc1)c1ccccc1-n1sc2ccccc2c1=O` was 242 nM.
Still for that read-out and setting: to `O=C(NCc1ccco1)c1ccc(-n2sc3ccccc3c2=O)cc1` belongs 157 nM.
On the same count and under the same terms, the value for `O=C(c1cccc(-n2sc3ccccc3c2=O)c1)N1CCCCC1` was 244 nM; that for `O=C(NCc1ccccc1)c1ccc(-n2sc3ccccc3c2=O)cc1` was 94 nM; that for `O=C(c1ccc(-n2sc3ccccc3c2=O)cc1)N1CCCCC1` was 246 nM.
For the molecule `O=C(c1ccccc1-n1sc2ccccc2c1=O)N1CCOCC1`, the IC50 is 1630 nM.
The same measure, in the same setting: the value for `CCCNC(=O)c1ccccc1-n1sc2ccccc2c1=O` was 381 nM; that for `CCCN(CCC)C(=O)c1cccc(-n2sc3ccccc3c2=O)c1` was 304 nM; that for `Cc1ccc(-n2sc3ccccc3c2=O)cc1C(=O)N1CCCCC1` was 306 nM.
Take `CN(C)C(=O)c1ccc(-n2sc3ccccc3c2=O)cc1`: the IC50 was 389 nM.
Still for that read-out and setting: the value for `O=C(c1ccccc1-n1sc2ccccc2c1=O)N1CCCCC1` was 531 nM.
For `O=C(NC1CC1)c1cccc(-n2sc3ccccc3c2=O)c1`, the IC50 is 197 nM.
On the same count and under the same terms, to `CCCN(CCC)C(=O)c1ccccc1-n1sc2ccccc2c1=O` belongs 795 nM.
On to `O=C(NCC1CC1)c1ccc(-n2sc3ccccc3c2=O)cc1`, for which the IC50 is 176 nM.
On the same count and under the same terms, to `O=C(c1cccc(-n2sc3ccccc3c2=O)c1)N1CCCC1` belongs 230 nM.
The same measure, in the same setting: to `CCN(CC)C(=O)c1ccc(-n2sc3ccccc3c2=O)cc1` belongs 230 nM; to `O=C(NCCN1CCCC1)c1ccc(-n2sc3ccccc3c2=O)cc1`, 304 nM.
Same read-out and setting: the value for `O=C(NCc1ccco1)c1cccc(-n2sc3ccccc3c2=O)c1` was 137 nM; that for `O=C(c1ccc(-n2sc3ccccc3c2=O)cc1)N1CCOCC1` was 383 nM; that for `O=C(NCc1ccccc1)c1cccc(-n2sc3ccccc3c2=O)c1` was 68 nM.

Staying with this assay, now noted: recombinant MK, PK/LDH coupled NADH absorbance 340 nm; at 100 µM; hits give high values.
Turning to `O=c1c2ccccc2nc2n1CCC2(Br)Br`, the inhibition result is “inactive”.
The same measure, in the same setting: the value for `COc1cccc2c(=O)n3c(nc12)/C(=C/c1ccc2c(c1)OCO2)CC3` was “inactive”; that for `Cc1ccc2nc3n(c(=O)c2c1)CCC3` was “inactive”.
Consider `O=c1c2ccccc2nc2n1CCC2SCc1ccccc1` (configuration not stated), for which the inhibition entry was “inactive”.
Same read-out and setting: to `O=c1c2ccccc2nc2n1CCC2NC1CC1` (configuration not stated) belongs “inactive”.
Still for that read-out and setting: the value for `O=c1c2c(Cl)cccc2nc2n1CCC2` was “inactive”.
Same read-out and setting: to `O=c1c2ccccc2nc2n1CCC2N1CCOCC1` (configuration not stated) belongs “inactive”; to `O=c1c2cc(F)ccc2nc2n1CCC2`, “inactive”.
With `O=c1c2c(F)cccc2nc2n1CCC2`, the inhibition entry was “inactive”.
Same read-out and setting: to `O=c1c2ccc(F)cc2nc2n1CCC2` belongs “inactive”; to `O=c1c2ccccc2nc2n1CCC2SCCc1ccccc1` (configuration not stated), “inactive”; to `COc1cccc(CCNC2CCn3c2nc2ccccc2c3=O)c1` (configuration not stated), “inactive”.
On the same count and under the same terms, to `O=c1c2ccccc2nc2n1CCC2N1CCC(Cc2ccccc2)CC1` (configuration not stated) belongs “inactive”; to `O=c1c2ccc(Cl)cc2nc2n1CCC2`, “inactive”; to `COc1cccc2c(=O)n3c(nc12)CCC3`, “inactive”.
Still for that read-out and setting: the value for `COc1cc2nc3n(c(=O)c2cc1OC)CCC3` was “inactive”; that for `O=c1c2cccc(Cl)c2nc2n1CCC2` was “inactive”; that for `O=c1c2cc(Cl)ccc2nc2n1CCC2` was “inactive”.
On to `Cc1cccc2c(=O)n3c(nc12)CCC3`, for which the inhibition result was “inactive”.
On the same count and under the same terms, the value for `O=c1c2cc(Br)ccc2nc2n1CCC2` was “inactive”.
As for `COc1ccc(CSC2CCn3c2nc2ccccc2c3=O)cc1` (configuration not stated), the inhibition result is “inactive”.

Source of the values: PubChem BioAssay AID1000 (SRMLSC, 2008).
